Laboratory results as given in US20030064380A1, “Anergy-regulated molecules” (The Center For Blood Research, Inc., priority 2001, published 2003).
Residues, ends and D or L forms follow the SMILES beside them. *: point of attachment. Cbz = O=C(OCc1ccccc1)*; CH2F = FC*

System: primary Th1 cells
Assay: protease inhibitors assay: recovery of antigen responses of anergised primary Th1 cells (ELISA or RNase protection)
Type: cell-based, mice
Conditions: single inhibitor, two experiments
Experimental: Th1 cells were anergised by pretreatment with 1 μg/ml plate-bound antiCD3ε in the presence of 100 μM Z-VAD.fink (Clabiochem), 5 μM NLVS (Calbiochem) and/or 10 μM lactacystein (Calbiochem) for 16 hours. After that, cells were washed three times and left resting for 48-72 hours.
Whether anergy could be prevented by including caspase and proteasome inhibitors in the first step of pretreatment with ionomycin or anti-CD3 was tested to evaluate the functional importance of proteolytic pathways in anergy induction. […] The variability likely reflects the fact that the proteasome inhibitors are toxic, and needed to be washed away hours to days before the assay stimuli (antigen/APC or anti-CD3/anti-CD28) were applied. […] Similar results were obtained with the D5 T cell clone. Thus directed proteolysis of signaling proteins may be one of several mechanisms that cooperate to maintain lymphocyte anergy.

SMILES | recovery of IL-2 production [%]
CC(C)CC(C=CS(C)(=O)=O)NC(=O)C(CC(C)C)NC(=O)C(CC(C)C)NC(=O)Cc1cc(I)c(O)c([N+](=O)[O-])c1 (centres unmarked) [NLVS] | 112
COC(=O)C[C@H](NC(=O)[C@H](C)NC(=O)[C@@H](NC(=O)OCc1ccccc1)C(C)C)C(=O)CF [ZVAD] (Cbz-Val-Ala-Asp(OMe)-CH2F) | 90
